In paper PMC12163822, “Synthesis and Pharmacological Characterization of a Novel Cannabinoid Receptor 1 Antagonist” (ACS Omega, 2025):
“Also recorded” adds a separate entry of the source. Read-outs that look alike come from different tables or passages of the source.

Assays:
human CB1 receptor [1] = molecular target: T1, human CB1 receptor (Homo sapiens, UniProt P21554); test: [35S]GTPγS functional binding assay in CHO cells overexpressing human CB1; format: biochemical; settings: CB1 overexpressing CHO membranes, result in words
T1 construct: purchased Sigma-Aldrich; host or cells: CHO cells
Method: (§1) The compound with the best affinity was also tested using functional [^35S]-GTPγS binding assays to characterize its activity as an agonist or antagonist/inverse agonist. A protein concentration of 0.1 mg/mL of rat cortex homogenates and a protein concentration of 0.02 mg/mL of commercial CB1 overexpressing CHO cells were used for these assays, suspended in a reaction buffer (Tris–HCl 50 mM, EGTA 1 mM, MgCl2 3 mM, NaCl 100 mM, 0.5% BSA; pH 7.4). The target compound was used in concentrations ranging from 10^–11 to 10^–4 M and incubated for 2 h at 37 °C with agitation in the presence of 0.5 nM [^35S]-GTPγS and 50 μM GDP. Basal coupling of [^35S]-GTPγS to Gi/o proteins was determined by incubating the membrane aliquots with the radioligand in the absence of the target compound. To define nonspecific binding, 10 μM of unlabeled GTPγS was added to the incubation.

human CB1 receptor [2] = molecular target: T1, human CB1 receptor; test: [3H]CP55,940 inhibition curves in membranes from CHO cells overexpressing human CB1; format: binding
Method: Membrane homogenates from CHO cells overexpressing human CB1 and CB2 receptors, as well as matched wild-type cells, were used to test newly synthesized compounds and were acquired from Sigma-Aldrich (St Louis, MO, USA).
(§2) To stop the reaction, an ice-cold wash buffer (50 mM Tris–HCl and 0.5% BSA, pH 7.4) was added. Then, the membranes were retained by vacuum filtration to a Whatman GF/C glass microfiber filter (Sigma-Aldrich, St. Louis, MO, USA) and the free radioligand was discarded. Filters with the bound radioligand were transferred to vials containing 5 mL of Ultima Gold cocktail (Revvity, Boston, MA, USA) and measured with a Packard Tri-Carb 2200CA liquid scintillation counter (Revvity, Boston, MA, USA).
A concentration of 0.02 mg/mL of commercial WT (as control) and CB1 and CB2 overexpressing CHO cells were used, and the same protocol described above was followed. Rat spleen homogenates were also used at a concentration of 0.1 mg/mL as a further characterization of binding to the CB2 receptor, given the high expression of this receptor in this tissue and the practical lack of CB1 in it.

cannabinoid receptors = test: [3H]CP55,940 competition binding in rat brain cortex membrane homogenates; set-up: species or system Sprague-Dawley rat; settings: for IC50: vs [3H]CP55,940, rat brain cortex membranes
Method: Sprague–Dawley rats (n = 5) were anesthetized and sacrificed by decapitation. Spleens and brains were then quickly removed by dissection at 4 °C, and in the case of the brain tissue, the cortex was dissected for the preparation of the membrane homogenates. For this procedure, spleen and cortex samples were homogenized using a Teflon-glass grinder (15 up-and-down strokes at 800 rpm) in 30 volumes of homogenization buffer (1 mM EGTA, 3 mM MgCl2, 50 mM Tris–HCl; pH 7.4) supplemented with […], at 4 °C. The obtained homogenates were centrifuged for 5 min at 1500 rpm. Pellets were removed, and supernatants were centrifuged again for 15 min at 14,000 rpm. For washing, the obtained pellets were resuspended in a buffer and centrifuged again, and the supernatant was removed. The resulting aliquots were stored at −80 °C until use.
as §2
Data from radioligand affinity assays were analyzed by using nonlinear regression. A comparison of fits was performed for every curve and the preferred model (one site vs two sites) was chosen in each case. Curves were fitted to the pooled data from multiple experiments. For the evaluation of data from autoradiographic assays, the Kruskal–Wallis test followed by Dunn’s post hoc tests for multiple comparisons was performed. For statistical significance, the threshold was set at p = 0.05. The number of replicates or animal sample number used in each case is stated in the figure legends. GraphPad Prism 9 (GraphPad Software) was employed for data analysis and presentation.

CB1 receptor [3] = molecular target: T2, CB1 receptor (Rattus norvegicus, UniProt P20272); test: Functional [35S]GTPγS autoradiography in rat brain slices; format: biochemical, Sprague-Dawley rat; set-up: fresh frozen sections from brain samples from wild-type; from tissue; host or cells: Sprague-Dawley rat brain sections; settings: for [35S]GTPγS binding, Stimulation (% over basal), CP55,940 + UVI3502 / [35S]GTPγS binding, Stimulation (% over basal): rat; for [35S]GTPγS binding, Stimulation (% over basal), CP55,940 + UVI3502: CP55,940 and UVI3502 both at 10 µM; for [35S]GTPγS binding, Stimulation (% over basal): compound alone 10 µM
Method: All brain sections were air-dried for 30 min and then immersed in Coplin jars for preincubation (4 times, 15 min each time) in an HEPES-based buffer (50 mM HEPES, 100 mM NaCl, 3 mM MgCl2, 0.2 mM EGTA, 0.5% BSA; pH 7.4) at 30 °C. The objective of this preincubation was the removal of endogenous ligands. […] Basal [^35S]-GTPγS binding was defined in the absence of the agonists in two consecutive slices. To define nonspecific binding, 10 μM of unlabeled GTPγS was added to the incubation in another section. Following incubation, slices were twice washed in an ice-cold 50 mM HEPES buffer (pH 7.4), dried, and exposed for 48 h to β-radiation sensitive film with a set of [^14C] standards calibrated for [^35S]. Calibrated films were scanned and quantified using Fiji software (Fiji, Bethesda, […], USA). The signal corresponding to nonspecific binding was previously subtracted from the basal and agonist-stimulated binding. Then, the data was expressed as the percentage of stimulation over basal following the formula: ([^35S]-GTPγS agonist-stimulated binding) × 100/([^35S]-GTPγS basal binding)-100.

CB1 receptor [4] = molecular target: T2, CB1 receptor; test: [35S]GTPγS functional binding assay in rat cortex membrane homogenates; format: biochemical; set-up: functional assays in membrane homogenates from the rat cortical tissue; from tissue; host or cells: Sprague-Dawley rat brain cortex
Method: as §1

[5] = nucleus basalis magnocellularis

T2 sequence (P20272 whole entry): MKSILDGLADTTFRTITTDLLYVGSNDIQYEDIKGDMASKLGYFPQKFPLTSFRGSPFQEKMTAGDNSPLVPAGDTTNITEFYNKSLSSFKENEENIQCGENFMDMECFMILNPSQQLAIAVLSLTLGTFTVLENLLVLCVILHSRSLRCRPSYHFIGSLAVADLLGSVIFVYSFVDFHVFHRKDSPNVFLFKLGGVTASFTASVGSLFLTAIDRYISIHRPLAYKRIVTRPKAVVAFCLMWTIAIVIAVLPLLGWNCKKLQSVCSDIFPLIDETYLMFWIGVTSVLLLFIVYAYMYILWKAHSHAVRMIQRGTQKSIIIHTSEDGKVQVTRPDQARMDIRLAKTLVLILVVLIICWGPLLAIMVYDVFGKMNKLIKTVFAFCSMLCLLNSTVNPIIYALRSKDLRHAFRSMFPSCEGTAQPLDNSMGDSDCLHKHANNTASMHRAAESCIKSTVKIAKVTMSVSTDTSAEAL
T1 sequence (P21554 whole entry): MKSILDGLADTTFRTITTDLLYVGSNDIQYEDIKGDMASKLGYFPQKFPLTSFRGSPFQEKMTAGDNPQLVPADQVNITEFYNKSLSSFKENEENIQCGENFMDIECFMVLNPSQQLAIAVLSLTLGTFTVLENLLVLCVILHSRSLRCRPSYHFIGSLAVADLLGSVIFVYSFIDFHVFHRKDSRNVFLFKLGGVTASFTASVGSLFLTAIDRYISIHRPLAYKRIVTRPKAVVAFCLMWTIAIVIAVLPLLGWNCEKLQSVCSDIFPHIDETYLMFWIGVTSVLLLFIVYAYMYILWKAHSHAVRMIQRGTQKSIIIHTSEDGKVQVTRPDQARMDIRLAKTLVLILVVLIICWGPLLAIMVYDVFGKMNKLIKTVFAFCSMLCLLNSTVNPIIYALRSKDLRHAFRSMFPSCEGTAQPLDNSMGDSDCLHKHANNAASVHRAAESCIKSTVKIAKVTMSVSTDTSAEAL

CCOC(=O)/C=C1\C(=O)Nc2ccc(C)cc2-c2c1c1cc(OC)ccc1n2C(=O)OCC [UVI3502]
stimulation of [35S]GTPγS binding (coupling of CB1 to Gi/o proteins) (human CB1 receptor [1]): does not; also recorded: did not stimulate the coupling of CB1 receptors to Gi/o proteins | IC50 (human CB1 receptor [2]): 4640 ± 1600 nM | total inhibition of [3H]CP55,940 binding (human CB1 receptor [2]; CB1 overexpressing CHO membranes): approximately 38% | IC50 (cannabinoid receptors; high-affinity site of two-site fit, read-out: IC50Hi): 0.026 nM | IC50 (cannabinoid receptors; low-affinity site of two-site fit, read-out: IC50Lo): 772 ± 49.4 nM | inhibition of [3H]CP55,940 binding corresponding to the high-affinity binding site (cannabinoid receptors; rat cortex membranes): approximately 18% | inhibition of [3H]CP55,940 binding corresponding to the low-affinity binding site (cannabinoid receptors; rat cortex membranes): ~40% | total inhibition of [3H]CP55,940 binding (cannabinoid receptors; rat cortex membranes): about 58% | affinity for cannabinoid receptors (inhibition of [3H]CP55,940 binding) (cannabinoid receptors; rat cortex membranes, result in words): showed affinity for cannabinoid receptors | activity on CP55,940-evoked [35S]GTPγS stimulation (CB1 receptor [3]; rat brain slices, 10 µM, result in words): acts as an antagonist | [35S]GTPγS binding, Stimulation (% over basal), CP55,940 + UVI3502 (CB1 receptor [3]; amygdala): -47 ± 30 % over basal | [35S]GTPγS binding, Stimulation (% over basal) (CB1 receptor [3]; amygdala): -35 ± 19 % over basal | [35S]GTPγS binding, Stimulation (% over basal), CP55,940 + UVI3502 (CB1 receptor [3]; cerebellum (gray matter)): -46 ± 31 % over basal | [35S]GTPγS binding, Stimulation (% over basal) (CB1 receptor [3]; cerebellum (gray matter)): -16 ± 51 % over basal | [35S]GTPγS binding, Stimulation (% over basal), CP55,940 + UVI3502 (CB1 receptor [3]; cortex): -60 ± 10 % over basal | [35S]GTPγS binding, Stimulation (% over basal) (CB1 receptor [3]; cortex): -45 ± 24 % over basal | [35S]GTPγS binding, Stimulation (% over basal), CP55,940 + UVI3502 (CB1 receptor [3]; globus pallidus): 89 ± 42 % over basal | [35S]GTPγS binding, Stimulation (% over basal) (CB1 receptor [3]; globus pallidus): -3 ± 46 % over basal | [35S]GTPγS binding, Stimulation (% over basal), CP55,940 + UVI3502 (CB1 receptor [3]; hippocampus dorsal): -62 ± 6 % over basal | [35S]GTPγS binding, Stimulation (% over basal) (CB1 receptor [3]; hippocampus dorsal): -40 ± 26 % over basal | [35S]GTPγS binding, Stimulation (% over basal), CP55,940 + UVI3502 (CB1 receptor [3]; [5]): -40 ± 11 % over basal | [35S]GTPγS binding, Stimulation (% over basal) (CB1 receptor [3]; [5]): -35 ± 30 % over basal | [35S]GTPγS binding, Stimulation (% over basal), CP55,940 + UVI3502 (CB1 receptor [3]; striatum): -54 ± 23 % over basal | [35S]GTPγS binding, Stimulation (% over basal) (CB1 receptor [3]; striatum): -34 ± 25 % over basal | [35S]GTPγS binding, Stimulation (% over basal), CP55,940 + UVI3502 (CB1 receptor [3]; substantia nigra): 14 ± 80 % over basal | [35S]GTPγS binding, Stimulation (% over basal) (CB1 receptor [3]; substantia nigra): -41 ± 24 % over basal | stimulation of [35S]GTPγS binding (coupling of CB1 to Gi/o proteins) (CB1 receptor [4]; rat cortex membrane homogenates, result in words): does not; also recorded: did not stimulate the coupling of CB1 receptors to Gi/o proteins | EC50 (CB1 receptor [4]; slight decrease of baseline [35S]GTPγS binding, rat brain cortex membrane homogenates): 4.06 ± 3.27 nM
